# From PMC12715762, “Discovery of VU6052254: A Novel, Potent M1 Positive Allosteric Modulator” (ACS Chemical Neuroscience, 2025)
# What was measured:
# [1] = plasma protein binding, equilibrium dialysis (rat); type: in vitro ADME; conditions: pH 7.4, rat (r), read-out: fu,plasma
# Procedure: Plasma protein binding and Brain homogenate binding: Determination of fraction unbound (f u) in plasma was conducted in vitro via equilibrium dialysis using HTDialysis (HTD) membrane plates. The top half of the plate was filled with 100 uL of Dubelco’s Phosphate Buffered Saline, pH 7.4 (DPBS). Compounds were diluted into plasma from each species (5 µM final concentration), which was aliquoted in triplicate to the ‘bottom half’ of the prepared HTD plate wells. The HTD plate was sealed and incubated for 6 hours at 37 °C. Following incubation, each well (both top and bottom halves) were transferred (20 µL) to the corresponding wells of a 96-shallow-well (V-bottom) plate. […]
# The unbound fraction (f u) was calculated following the equation below, and mean values for each species were calculated from 3 replicates.
# A similar approach was used to determine the degree of brain homogenate binding, which employed the same methodology and procedure with the following modifications: 1) a final compound concentration of 1 μM was used, 2) naïve rat brains were homogenized in DPBS (1:3 composition of brain: DPBS, w/w) using a Mini-Bead Beater™ machine in order to obtain brain homogenate, which was then treated in the same manner as the plasma samples in the previously described plasma protein binding assay. Fraction unbound for both plasma and brain samples was determined using Equation 4. […]
# [2] = target: Nicotinic Acetylcholine α1, Bungarotoxin (Homo sapiens, UniProt P02708+P07510+Q07001); test: Eurofins radioligand binding; conditions: read-out: % Inhibition at 10 µM
# 3A4 [3] = test: CYP induction repeated at a different CRO (mRNA and protein); type: cell-based; conditions: result in words
# M1 KO mice = test: Racine seizure assay in M1 KO mice; type: in vivo, mouse; conditions: result in words
# Thyroid Hormone = test: Eurofins radioligand binding; conditions: Rat
# Cannabinoid CB1 = Cannabinoid CB1 (Homo sapiens, UniProt P21554); test: Eurofins radioligand binding
# 3A4 [4] = target: 3A4 (Homo sapiens, UniProt P08684); test: CYP450 phenotyping, recombinant enzymes; type: in vitro ADME; conditions: 3A4, panel of eight recombinant enzymes
# Calcium Channel N-Type = Calcium Channel N-Type (Rattus norvegicus, UniProt Q02294); test: Eurofins radioligand binding
# Chain of Calcium Channel N-Type (Q02294 whole entry): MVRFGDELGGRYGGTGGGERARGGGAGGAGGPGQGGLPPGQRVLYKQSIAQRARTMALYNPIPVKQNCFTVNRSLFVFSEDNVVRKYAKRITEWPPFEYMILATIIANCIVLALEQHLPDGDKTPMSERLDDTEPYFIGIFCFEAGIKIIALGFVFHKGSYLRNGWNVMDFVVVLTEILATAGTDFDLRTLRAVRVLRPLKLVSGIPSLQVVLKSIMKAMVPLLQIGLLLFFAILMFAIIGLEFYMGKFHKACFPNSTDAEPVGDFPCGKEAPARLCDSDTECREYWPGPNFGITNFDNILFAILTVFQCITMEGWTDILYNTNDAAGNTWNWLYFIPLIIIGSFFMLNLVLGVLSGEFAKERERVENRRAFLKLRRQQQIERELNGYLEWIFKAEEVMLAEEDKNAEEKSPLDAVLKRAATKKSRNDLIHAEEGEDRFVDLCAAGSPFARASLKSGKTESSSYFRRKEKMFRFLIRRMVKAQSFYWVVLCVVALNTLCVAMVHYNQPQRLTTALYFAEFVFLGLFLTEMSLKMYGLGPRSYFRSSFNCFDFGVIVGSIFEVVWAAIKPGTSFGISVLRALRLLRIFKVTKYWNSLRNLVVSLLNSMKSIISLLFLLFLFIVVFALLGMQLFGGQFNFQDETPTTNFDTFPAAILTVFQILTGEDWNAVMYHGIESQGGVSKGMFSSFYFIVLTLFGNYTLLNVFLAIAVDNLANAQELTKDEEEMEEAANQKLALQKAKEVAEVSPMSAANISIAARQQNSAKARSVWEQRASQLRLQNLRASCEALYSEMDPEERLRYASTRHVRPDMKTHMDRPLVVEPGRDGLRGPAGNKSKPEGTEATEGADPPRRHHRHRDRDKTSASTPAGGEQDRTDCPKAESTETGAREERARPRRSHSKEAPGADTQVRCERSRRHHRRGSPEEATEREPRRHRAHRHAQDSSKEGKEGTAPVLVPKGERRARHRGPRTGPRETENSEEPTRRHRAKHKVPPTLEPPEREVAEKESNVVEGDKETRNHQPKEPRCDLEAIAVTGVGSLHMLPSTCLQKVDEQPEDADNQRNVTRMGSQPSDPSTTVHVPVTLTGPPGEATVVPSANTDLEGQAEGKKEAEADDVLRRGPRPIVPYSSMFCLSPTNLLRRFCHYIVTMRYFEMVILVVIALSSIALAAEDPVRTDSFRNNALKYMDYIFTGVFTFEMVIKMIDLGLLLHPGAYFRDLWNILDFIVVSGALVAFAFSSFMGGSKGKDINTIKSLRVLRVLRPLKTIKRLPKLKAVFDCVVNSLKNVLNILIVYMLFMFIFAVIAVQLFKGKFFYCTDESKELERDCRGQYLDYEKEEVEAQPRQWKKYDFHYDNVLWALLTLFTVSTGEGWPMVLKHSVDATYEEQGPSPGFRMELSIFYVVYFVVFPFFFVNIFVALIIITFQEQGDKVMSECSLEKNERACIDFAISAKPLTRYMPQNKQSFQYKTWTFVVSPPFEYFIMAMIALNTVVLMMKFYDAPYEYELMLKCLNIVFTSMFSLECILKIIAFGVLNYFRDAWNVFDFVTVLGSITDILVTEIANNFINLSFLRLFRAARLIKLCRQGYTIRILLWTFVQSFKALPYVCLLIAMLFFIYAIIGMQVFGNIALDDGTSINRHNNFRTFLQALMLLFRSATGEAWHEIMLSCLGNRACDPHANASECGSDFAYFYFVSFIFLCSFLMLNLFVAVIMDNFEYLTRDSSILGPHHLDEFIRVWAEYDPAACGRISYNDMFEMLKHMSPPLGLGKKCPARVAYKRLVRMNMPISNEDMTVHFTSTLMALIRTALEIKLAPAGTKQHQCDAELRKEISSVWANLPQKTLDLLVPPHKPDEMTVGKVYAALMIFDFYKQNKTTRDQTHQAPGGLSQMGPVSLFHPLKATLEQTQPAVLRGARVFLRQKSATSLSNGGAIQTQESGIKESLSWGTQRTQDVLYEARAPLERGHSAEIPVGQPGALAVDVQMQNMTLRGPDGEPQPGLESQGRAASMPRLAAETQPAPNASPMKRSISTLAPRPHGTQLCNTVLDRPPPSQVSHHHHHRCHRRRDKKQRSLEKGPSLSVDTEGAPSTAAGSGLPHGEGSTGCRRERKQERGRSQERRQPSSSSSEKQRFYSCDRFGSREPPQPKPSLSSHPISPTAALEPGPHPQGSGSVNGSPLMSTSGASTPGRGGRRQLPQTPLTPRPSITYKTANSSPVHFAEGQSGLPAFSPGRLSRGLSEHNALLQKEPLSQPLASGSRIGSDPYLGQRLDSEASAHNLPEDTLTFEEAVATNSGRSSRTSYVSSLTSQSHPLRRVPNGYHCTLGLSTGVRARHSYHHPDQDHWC
# Chain of Cannabinoid CB1 (P21554 whole entry): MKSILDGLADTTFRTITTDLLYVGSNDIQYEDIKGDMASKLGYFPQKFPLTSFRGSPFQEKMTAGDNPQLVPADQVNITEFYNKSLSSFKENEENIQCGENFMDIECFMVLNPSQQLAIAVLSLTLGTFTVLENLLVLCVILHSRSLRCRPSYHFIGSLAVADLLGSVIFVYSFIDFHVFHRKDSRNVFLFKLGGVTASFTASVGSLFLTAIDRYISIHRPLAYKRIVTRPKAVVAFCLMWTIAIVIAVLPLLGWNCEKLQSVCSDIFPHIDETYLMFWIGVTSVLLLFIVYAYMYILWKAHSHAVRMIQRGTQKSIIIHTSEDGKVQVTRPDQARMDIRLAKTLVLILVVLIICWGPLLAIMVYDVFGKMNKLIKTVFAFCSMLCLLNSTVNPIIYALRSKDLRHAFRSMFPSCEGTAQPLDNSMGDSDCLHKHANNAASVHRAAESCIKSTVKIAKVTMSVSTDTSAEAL
# Chain of Nicotinic Acetylcholine α1, Bungarotoxin (P11230 24-501): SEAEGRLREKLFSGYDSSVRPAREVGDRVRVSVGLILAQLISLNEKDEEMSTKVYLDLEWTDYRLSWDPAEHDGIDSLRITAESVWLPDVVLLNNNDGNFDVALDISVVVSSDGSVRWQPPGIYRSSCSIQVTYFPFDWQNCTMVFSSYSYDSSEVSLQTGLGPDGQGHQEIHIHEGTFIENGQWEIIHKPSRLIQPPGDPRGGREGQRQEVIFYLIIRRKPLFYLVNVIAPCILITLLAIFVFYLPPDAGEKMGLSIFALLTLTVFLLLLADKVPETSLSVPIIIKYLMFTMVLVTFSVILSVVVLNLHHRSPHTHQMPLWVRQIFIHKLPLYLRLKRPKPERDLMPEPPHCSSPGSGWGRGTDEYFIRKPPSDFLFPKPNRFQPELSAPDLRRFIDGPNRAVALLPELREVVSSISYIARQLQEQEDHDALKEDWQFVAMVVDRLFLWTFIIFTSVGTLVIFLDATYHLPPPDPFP
# Chain of Nicotinic Acetylcholine α1, Bungarotoxin (P07510 23-517): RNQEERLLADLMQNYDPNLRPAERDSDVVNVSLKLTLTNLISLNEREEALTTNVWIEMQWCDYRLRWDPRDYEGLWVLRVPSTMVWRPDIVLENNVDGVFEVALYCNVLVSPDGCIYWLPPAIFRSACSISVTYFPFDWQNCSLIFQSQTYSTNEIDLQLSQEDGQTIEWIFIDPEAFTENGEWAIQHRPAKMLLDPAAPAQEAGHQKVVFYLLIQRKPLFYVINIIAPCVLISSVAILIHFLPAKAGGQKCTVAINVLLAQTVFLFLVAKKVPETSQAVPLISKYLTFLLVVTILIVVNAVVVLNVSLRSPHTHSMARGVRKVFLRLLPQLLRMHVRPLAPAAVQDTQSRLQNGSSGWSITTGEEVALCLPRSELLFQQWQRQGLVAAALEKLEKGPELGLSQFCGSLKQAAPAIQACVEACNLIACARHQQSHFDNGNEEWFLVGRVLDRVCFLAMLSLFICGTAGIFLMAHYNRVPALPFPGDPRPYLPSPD
# Chain of Nicotinic Acetylcholine α1, Bungarotoxin (P02708 21-457): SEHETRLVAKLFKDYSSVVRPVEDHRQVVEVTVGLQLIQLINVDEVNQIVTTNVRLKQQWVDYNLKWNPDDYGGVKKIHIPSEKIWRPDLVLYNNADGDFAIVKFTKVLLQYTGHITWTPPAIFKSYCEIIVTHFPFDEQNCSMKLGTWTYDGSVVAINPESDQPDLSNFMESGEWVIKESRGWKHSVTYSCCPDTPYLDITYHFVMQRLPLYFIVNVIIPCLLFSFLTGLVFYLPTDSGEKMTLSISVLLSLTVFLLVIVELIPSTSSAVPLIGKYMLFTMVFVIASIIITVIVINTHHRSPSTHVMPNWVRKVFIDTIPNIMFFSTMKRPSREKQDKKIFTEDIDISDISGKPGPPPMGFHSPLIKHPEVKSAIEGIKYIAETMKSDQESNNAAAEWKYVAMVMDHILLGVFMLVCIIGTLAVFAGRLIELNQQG
# Chain of Nicotinic Acetylcholine α1, Bungarotoxin (Q07001 22-517): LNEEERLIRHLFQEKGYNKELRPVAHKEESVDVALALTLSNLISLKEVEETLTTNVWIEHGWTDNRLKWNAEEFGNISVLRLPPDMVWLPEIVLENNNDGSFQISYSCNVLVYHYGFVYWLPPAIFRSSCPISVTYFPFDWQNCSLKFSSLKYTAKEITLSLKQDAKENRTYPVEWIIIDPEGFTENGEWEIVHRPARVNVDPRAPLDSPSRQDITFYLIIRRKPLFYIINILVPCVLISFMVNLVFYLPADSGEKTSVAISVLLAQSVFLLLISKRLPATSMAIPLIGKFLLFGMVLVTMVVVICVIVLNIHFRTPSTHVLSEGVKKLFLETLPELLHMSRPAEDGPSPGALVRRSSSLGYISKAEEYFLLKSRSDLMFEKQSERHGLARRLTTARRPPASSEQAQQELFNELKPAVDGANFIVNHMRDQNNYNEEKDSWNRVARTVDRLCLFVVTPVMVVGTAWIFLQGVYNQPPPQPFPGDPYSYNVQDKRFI
smiles,measurement,setting,value
Cn1cc2c(-c3cc(F)c(CN4Cc5ncccc5C4=O)c(F)c3)ccc(C(C)(C)O)c2n1 [compound 7],"fraction unbound at 6 h, 5 µM",[1],0.023
same,inhibition at 10 µM,[2],2%
same,"3A4 induction, mRNA and protein",3A4 [3],not to be an inducer of 3A4
same,Racine-scale effects in M1 KO mice,M1 KO mice,absent
same,% Inhibition at 10 µM,Thyroid Hormone,-1%
same,inhibition at 10 µM,Cannabinoid CB1,25%
same,"contribution to metabolism, CYP450 phenotyping",3A4 [4],96.8%
same,inhibition at 10 µM,Calcium Channel N-Type,-11%
